Assay results taken from EP0943680A1 (priority 1998, dated 1999).
≈ marks a conversion by molar mass, not a printed value. Entries after “also recorded” stand apart in the source; their conditions may differ. Where two headings read alike, the source gives them in different places. Marks after values point to notes of the source that are not given here.

Experiments:
[1] = test system: Neoplastic cells forming a tumor; details: cited from earlier work
C6 Rat glioma = type: cell-based
[2] = test system: U-373 MG Human Glioblastoma; type: cell-based; details: parental U-373 MG
Hs 683 Human Glioma = type: cell-based; details: parental Hs 683
[3] = test system: Sk-N-MC Human Neuroblastoma; type: cell-based; details: parental Sk-N-MC
[4] = test system: FLYA13 Human Amphotropic Packaging Cells; type: cell-based; details: parental FLYA13
[5] = test system: ΨCRIP Murine Amphotropic Packaging Cells; type: cell-based; details: parental ΨCRIP
[6] = test system: NlH 3T3 Murine Fibroblasts; type: cell-based; details: parental 3T3
[7] = test system: Ag 9181 Human Fibroblasts; type: cell-based; details: parental Ag 9181
[8] = test system: C6 Rat glioma lin ^+ clones; experiment: cells; type: cell-based; details: for IC50: Rattus norvegicus
[9] = test system: U-373 MG Human Glioblastoma lin ^+ clones; experiment: cells; type: cell-based; details: U373 MG, U-373 MG lin+
[10] = test system: Hs 683 Human Glioma lin ^+ clones; experiment: cells; type: cell-based; details: Hs 683 lin+
[11] = test system: Sk-N-MC Human Neuroblastoma lin ^+ clones; experiment: cells; type: cell-based
[12] = test system: FLYA13 Human Amphotropic Packaging Cells lin ^+ clones; experiment: cells; type: cell-based
[13] = test system: ΨCRIPlin plus normal C6 cells labeled red with Dil; type: cell-based
[14] = test system: ΨCRIPlin /ΨCRIP red or ΨCRIPlin /3T3 red; type: cell-based; details: 100 µg/ml linamarin
[15] = test system: brain tumor of glioblastoma-C6lin transfected cells; type: in vivo, Wistar rats
C6, ΨCRIP and 3T3 = details: very high concentrations of linamarin; cells without linamarase gene
[16] = test system: rat glioblastoma C6 cells brain tumour
normal rat brains = details: local administration of up to 9 mg of linamarin
[17] = all human tissues; 1-20 mM linamarin, pH 6 and 7.4, 37°C
[18] = rat kidney only; 1-20 mM linamarin, pH 6 and 7.4, 37°C
adults = details: human, in vivo
[19] = test system: ΨCRIP Murine Amphotropic Packaging Cells lin ^+ clones; experiment: cells; details: Mus musculus
Female hamsters = details: oral dose of 108 mg of linamarin/kg body weight; cited from earlier work
animals = details: cited from earlier work
[20] = in the absence of linamarase; cited from earlier work
[21] = best clone, read-out: IC50 µg/ml Linamarin lin ^+ clones Best clone
[22] = mean of at least 4 clones, […], read-out: IC50 µg/ml Linamarin lin ^+ clones Mean value

Structure (SMILES): N#CO [sodium cyanate]
- higher sensitivity to the inhibitory effects at decreased extracellular pH [1]: ≥ 50%

Structure (SMILES): CC(C)(C#N)O[C@@H]1O[C@H](CO)[C@@H](O)[C@H](O)[C@H]1O [linamarin, 2-0H-isobutyronitrile-β-D-glucopyranoside]
- % of survival cells with 1 mg/ml Linamarin (C6 Rat glioma; 1 mg/ml linamarin, parental C6): 100^a %
- survival of C6 alone (C6 Rat glioma; 10 mg/ml linamarin): 86%
- % of survival cells with 1 mg/ml Linamarin [2]: 80%
- % of survival cells with 1 mg/ml Linamarin (Hs 683 Human Glioma): 80%
- % of survival cells with 1 mg/ml Linamarin [3]: 80%
- % of survival cells with 1 mg/ml Linamarin [4]: 88^a %
- % of survival cells with 1 mg/ml Linamarin ([5]; 1 mg/ml linamarin): 85%
- cell survival values ([5]; up to 2 mg/ml of linamarin): did not substantially decrease cell survival values
- % of survival cells with 1 mg/ml Linamarin [6]: 90^a %
- % of survival cells with 1 mg/ml Linamarin [7]: 89^a %
- IC50 ([8]; C6lin clone, pH 6.6, read-out: estimated IC50): 202 µg/mL (≈ 817 µM)
- IC50 ([8]; C6lin clone, pH 7.4, read-out: estimated IC50): 345 µg/mL (≈ 1400 µM)
- IC50 ([8]; C6 lin+, best clone, read-out: IC50 µg/ml Linamarin lin ^+ clones Best clone): 345 µg/mL
- IC50 ([8]; C6 lin+, mean of at least 4 clones, […], read-out: IC50 µg/ml Linamarin lin ^+ clones Mean value): 407 µg/mL
- IC50 of C6lin clones relative to ΨCRIP individual clones ([8]; in general): 50 times higher
- IC50 [9, 21]: 145 µg/mL
- IC50 [9, 22]: 236 µg/mL
- IC50 [10, 21]: 230 µg/mL
- IC50 [10, 22]: 288 µg/mL
- IC50 [11, 21]: 183 µg/mL
- IC50 [11, 22]: 215 µg/mL
- IC50 ([12]; FLYA13lin clone, pH 6.6, read-out: estimated IC50): 77 µg/mL (≈ 311 µM)
- IC50 ([12]; FLYA13lin clone, pH 7.4, read-out: estimated IC50): 195 µg/mL (≈ 789 µM)
- IC50 ([12]; FLYA13 lin+, best clone, read-out: IC50 µg/ml Linamarin lin ^+ clones Best clone): 195 µg/mL
- IC50 ([12]; FLYA13 lin+, mean of at least 4 clones, […], read-out: IC50 µg/ml Linamarin lin ^+ clones Mean value): 382 µg/mL
- viability of either cell type in the mixture ([13]; 100 µg/ml linamarin): affect only partially the viability
- fate of both cell types in the mixture ([13]; 2.5 mg/ml of linamarin): died
- fate of the mixtures [14]: devastated
- outcome of the animal ([15]; similar size tumour, only 1 mg of linamarin): finally died as a consequence of the tumour
- tumour outcome by magnetic resonance imaging ([15]; tumour around 70 mm^3, total of 2.4 mg linamarin over 8 days, local infusion, image three weeks after treatment): total absence of the tumoral mass; also recorded: eradicated completely
- cyanide detected after linamarin treatment (C6, ΨCRIP and 3T3): No cyanide was detected
- outcome of the medium size tumour animal ([16]; rat, in vivo): died a month later
- outcome of control animals treated only with the prodrug ([16]; tumours of 220 and 140 mm^3, […]): died shortly afterwards
- tumour outcome, largest and smallest glioblastomas ([16]; tumours of 1000 mm^3 and 400 mm^3, […]): total eradication of the tumour
- cases developing a recurrence later ([16]; very large tumors (over 500 mm^3 in size), after up to six months): approximately 50%
- toxicity (normal rat brains): No apparent toxicity
- linamarase activity (cyanide release from linamarin) [17]: negative results for linamarase activity
- linamarase activity (cyanide release from linamarin) [18]: low but detectable levels of cyanide production
- equivalent of the lethal cyanide dose (adults): 500 to 1000 mg
- IC50 ([19]; read-out: IC50 µg/ml Linamarin lin ^+ clones Best clone): 7 µg/mL
- IC50 ([19]; read-out: IC50 µg/ml Linamarin lin ^+ clones Mean value): 32 µg/mL
- IC50 ([19]; read-out: concentrations that resulted in 50% cytotoxicity (IC50)): 7 to 60 µg/mL (≈ 28.3 to 243 µM)
- death (cyanide poisoning) (Female hamsters): 18 % of the animals
- toxicity compared with oral dosing (animals; administered intraperitoneally): practically absent
- toxicity compared with oral dosing (animals; similar doses intravenously): much lower
- excretion once absorbed [20]: excreted unchanged in the urine
